# According to patent US8673548B2, “Genes and polypeptides relating to breast cancers” (Oncotherapy Science, Inc., priority 2006, dated 2014):
# Entries after “also recorded” stand apart in the source; their conditions may differ.
# Experiments:
# [1] = test system: T47D cells; test: cell proliferation MTT assay with pp1-18 peptide; assay type: cell-based, human; settings: 0, 2.5, 5 and 10 μM every day; MTT at 5th day
# Description: (§1) To inhibit the phosphorylation of PBK/TOPK at Thr9 by CDK1-cyclin B1, we designed permeable peptide (pp1-18) identical to the N-terminus (1-18 amino acids) of PBK/TOPK ([…]-G-[…]: SEQ ID NO: 99) was synthesized by Sigma-Aldrich. The efficacy of the peptide blocking the CDK1-cyclin B1-induced phosphorylation of PBK/TOPK was estimated by in vitro kinase assay according to in vitro kinase section. […] The phosphorylation of PBK/TOPK and cyclin B1 proteins were observed by SDS-PAGE and autoradiography. For the cell proliferation assay, T47D and HMEC cells were seeded at 1.3×10^4 cells in a 12-well plate, respectively. At the following day, each concentration (0, 2.5, 5, and 10 μM) of pp1-18 peptide was treated everyday, and cell viability was measured by MTT assay at 5th day. A significance of the pp 1-18 peptide to suppress T47D cell growth was statistically evaluated by the Student's t-test. To inhibit the phosphorylation of PBK/TOPK in mitotic cells by using pp1-18 peptide, T47D cells were seeded at 1×10^5 cells in a 60 mm dish. Two days after incubation, both nocodazole (0.3 μg/mL) and the permeable peptide (10 μM) were treated for further 18 or 24 hours before collection, and then phosphorylation of PBK/TOPK was investigated by western blotting using anti-PBK/TOPK monoclonal antibody and FACS analysis. […]
# [2] = test system: HMEC cells; test: cell proliferation MTT assay with pp1-18 peptide; assay type: cell-based, human; settings: 0, 2.5, 5 and 10 μM every day; MTT at 5th day
# Description: as §1
# [3] = test system: T47D cells; test: phase contrast microscopy of cells treated with pp1-18; assay type: cell-based, human; settings: 50 μM peptide
# [4] = test system: PBK/TOPK; test: western blot of PBK/TOPK phosphorylation in nocodazole-treated mitotic cells with pp1-18; assay type: cell-based, human; settings: T47D; nocodazole plus 10 μM peptide, 18 or 24 hours
# Description: as §1
# [5] = test system: T47D cells; test: FACS cell cycle analysis with nocodazole and pp1-18; assay type: cell-based, human; settings: 24 hours after treatment of nocodazole, 10 μM peptide
# Description: as §1
# [6] = target: T1, CDK1-cyclin B1 (Homo sapiens, UniProt P06493); test: in vitro kinase assay, CDK1-cyclin B1 phosphorylation of PBK/TOPK; assay type: biochemical; settings: peptide 0-20 μM
# T1 construct: purchased New England Biolabs
# Protocol: After 30 minutes incubation at 30° C., the reactions were terminated by addition of SDS-sample buffer. After boiling, the protein samples were electrophoresed and autoradiographed.
# as §1, with “dish.” for “dish. Two days after incubation, both nocodazole (0.3 μg/mL) and the permeable peptide (10 μM) were treated for further 18 or 24 hours before collection, and then phosphorylation of PBK/TOPK was investigated by western blotting using anti-PBK/TOPK monoclonal antibody and FACS analysis.”
# T1 sequence (P06493 whole entry): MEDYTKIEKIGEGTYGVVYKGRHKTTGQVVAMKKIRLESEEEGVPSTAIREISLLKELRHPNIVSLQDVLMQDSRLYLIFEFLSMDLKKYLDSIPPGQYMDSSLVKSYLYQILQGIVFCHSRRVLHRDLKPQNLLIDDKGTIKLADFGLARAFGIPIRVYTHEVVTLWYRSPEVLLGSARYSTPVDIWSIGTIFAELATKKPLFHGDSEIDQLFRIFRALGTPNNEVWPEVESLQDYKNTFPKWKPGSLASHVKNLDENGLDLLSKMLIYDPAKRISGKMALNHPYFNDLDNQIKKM
# T1 sequence (P14635 whole entry partner): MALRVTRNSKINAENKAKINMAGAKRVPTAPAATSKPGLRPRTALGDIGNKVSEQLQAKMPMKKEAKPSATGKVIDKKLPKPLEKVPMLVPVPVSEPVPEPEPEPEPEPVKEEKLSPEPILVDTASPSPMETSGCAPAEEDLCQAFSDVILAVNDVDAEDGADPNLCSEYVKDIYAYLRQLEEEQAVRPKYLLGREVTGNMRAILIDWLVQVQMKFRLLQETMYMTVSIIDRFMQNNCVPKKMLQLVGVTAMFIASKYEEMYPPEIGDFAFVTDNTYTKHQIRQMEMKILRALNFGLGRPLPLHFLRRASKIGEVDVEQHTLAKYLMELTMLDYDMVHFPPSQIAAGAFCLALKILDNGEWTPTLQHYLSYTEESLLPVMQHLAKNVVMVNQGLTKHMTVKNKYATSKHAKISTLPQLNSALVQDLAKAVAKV
substance,measurement,setting,value
RRRRRRRRRRR-G-MEGISNFKTPSKLSEKKK (RRRRRRRRRRRGMEGISNFKTPSKLSEKKK; N-terminal poly-arginine (R11) and glycine linker; An artificialy designed dominant negative) [pp1-18],growth of T47D breast cancer cells,[1],significantly suppressed cell growth; also recorded: clearly suppressed the growth
same,growth of HMEC cells,[2],did not affect the growth; also recorded: no effect
same,cellular morphology,[3],long intercellular bridge; also recorded: prolonged midbodies by abnormal cytokinesis
same,phosphorylation of PBK/TOPK in mitotic cells,[4],drastically reduced
same,shift to G2/M phase of cell cycle,[5],blocked shift to G2/M phase
same,phosphorylation of recombinant PBK/TOPK protein by CDK1-cyclin B1,[6],diminished in dose-dependent manner
